The values below come from patent publication US20080103191A1, “ENTACAPONE-DERIVATIVES” (priority 2006, published 2008).

Values after ≈ are worked out from the molar mass of the structure shown. Like-named read-outs stand apart in the source and are kept apart here. Bounds are passed on as bounds.

Series [1] is described as follows: Log D (pH 7.4) by isocratic HPLC. It is filed as physicochemical. As to conditions: YMC Pro C18 column, phosphate buffer pH 7.4/acetonitrile 45/55. On the procedure: LogD is an indicator for absorption and lipophilicity for ionized compounds under defined pH conditions and is measured by applying an isocratic HPLC Method at pH 7.4.
The log D has been tested at pH 7.4. The testing has been carried out by the following method: Isocratic HPLC method: Column YMC Pro C18, 150 mm×4.0 mm, 3 μm, Eluent Phosphate buffer pH 7.4/acetonitrile (45/55, (v/v)), Runtime 15-60 min, Flow rate 1.2 ml/min, Detection wavelength: 220 nm

The nature of series [2]: Solubility in 0.1 N HCl, PBS buffer, FaSSIF and FeSSIF. It is filed as physicochemical. As to conditions: thermodynamic from solid, ambient temperature. On the procedure: For testing solubility, saturated solutions of selected compounds of formula I are prepared in four different systems and compared to the solubility of entacapone. The solubility is tested in 0.1 N HCl (pH 1), PBS buffer (pH 7.4) and in two simulated gastric fluids, FaSSIF at pH 6.5 (for fasting state) and FeSSIF at pH 5.0 (for fed state) at ambient temperature. The content of the FaSSIF simulated gastric fluid is as follows:
The solubility testing is carried out by the following method: An excess amount of each compound is added to a 0.1 N HCl, PBS buffer, FeSSIF and FaSSIF. The suspensions are shaken for 10 min. After centrifugation the concentration is determined by HPLC. Reversed phase gradient HPLC method, column YMC Pro C8, 50 mm×4.0 mm, 3 μm, Eluent A: Water:trifluoroacetic acid (100:0.5 (v/v)), Eluent B: Acetonitrile:trifluoroacetic:acid (100:0.5 (v/v)). Column temperature 30° C., Flow rate 3.0 mL/min, Detection wavelength: 220 nm

A short description of another series: Plasma stability ex vivo. As to conditions: human plasma, 37° C., read-out: t1/2 plasma. It counts as in vitro ADME. On the procedure:
Plasma stability is determined in human and rat plasma ex vivo. For the determination of the plasma stability of the compounds of formula I, the test compounds were incubated with human plasma (c=5 μg/mL) at 37° C. for certain time intervals up to 60, resp. 120 min (depending on the compound). Afterwards the incubations were stopped by equivalent addition of acetonitrile for protein precipitation, and the samples were mixed and centrifuged. The supernatants were adequately diluted and analyzed by HPLC with UV detection at 305 nm.
The degradation of the compounds of formula I as well as the formation of the active drug entacapone were monitored, and the half-life times of the compounds of formula I were calculated from the obtained peak areas.

Series [3] is described as follows: Chemical hydrolysis stability at pH 1 and pH 7.4 (HPLC). It is filed as physicochemical. As to conditions: 37° C., over 12 h. On the procedure: The stability of compounds of the present invention is tested at pH 1 and at pH 7.4. The testing is carried out by the following HPLC method:
Chemical hydrolysis rates t1/2 [h] of selected compounds of formula I are determined in 0.1 N HCl (pH 1) and PBS buffer (pH 7.4) solution. Solutions are prepared by dissolving an appropriate amount of compound in 0.1 N HCl and PBS buffer solution. Samples were withdrawn at designated time intervals and analysed for remaining prodrug by HPLC at 37° C. over 12 h.
Reversed phase gradient HPLC method, column YMC Pro C8, 50 mm×4.0 mm, 3 μm, Eluent A: Water:trifluoroacetic acid (100:0.5 (v/v)), Eluent B: Acetonitrile:trifluoroacetic:acid (100:0.5 (v/v)). Column temperature 30° C., Flow rate 3.0 mL/min, Detection wavelength: 220 nm
For evaluation, the peak area of the respective compound from the first injection is defined as 100% relative concentration. The peak areas of all other subsequent injections are calculated in percentage relating to this standard. (relative concentration in %). The relative concentrations are plotted in a logarithmic scale (ln) against the injection times. Based on the assumption of a first order kinetic, the rate constant and half life times (t1/2 [h]) can be calculated.

The nature of series [4]: Permeability in Caco-2 cells, apical to basolateral. It is filed as in vitro ADME. Further details: dose or concentration left out as unconfirmed. As to conditions: human; 21d Caco-2 monolayer, apical pH 6.5 to basolateral pH 7.4, 60 minutes. The source says:
The human adenocarcinoma cell line Caco-2 is used as an in vitro system to predict oral absorption. These cells serve as a model of small bowel tissue and permeation through these cells is a predictor for gastro-intestinal absorption. Further to being a model for oral absorption, permeability in Caco-2 cells may be predictive for the blood brain barrier permeability (P. Garberg et al.; Toxicology in vitro 19 (2005); 299-334). […] The permeability in Caco-2 cells has been tested by the following method:
The permeability of selected compounds of formula I across Caco-2 (21d Caco-2-culture) monolayer in the apical to basolateral direction is investigated. Control substances were ^3H-propranolol and ^3H-mannitol.
The nominal concentration of the test items is […]. The pH value is set to 6.5 for the apical transport medium and to 7.4 for the basolateral medium. Samples are obtained following 60 minutes (120 minutes for control samples) incubation from the basolateral receiver chamber. At sampling time approximately 600 μL of each well are transferred into an eppendorf vial and stored between −12° and −30° C. until HPLC or LC-MS/MS analysis. The control substances are quantified by liquid scintillation.

Setting [5] is: 0.1 N HCl, pH 1, simulated gastric fluid, shaken 10 min, read-out: Solubility 0.1N HCl Ph 1.0.
[6] abbreviates: FaSSIF, pH 6.5, fassif, fasting state fluid, read-out: Solubility FaSSIF Ph 6.5.
The mark [7] stands for this setting: FeSSIF, pH 5, fessif, fed state fluid, read-out: Solubility FeSSIF Ph 5.0.
[8] abbreviates: PBS buffer, pH 7.4, aqueous buffer, read-out: Solubility PBS Ph 7.4.
[9] abbreviates: pH 1, 0.1 N HCl, read-out: t1/2 at pH 1 (converted).
[10] abbreviates: pH 7.4, PBS buffer, read-out: t1/2 at pH 7.4 (converted).

In series [1], `CCCOC(=O)Oc1cc(/C=C(\C#N)C(=O)N(CC)CC)cc([N+](=O)[O-])c1O` [Compound 41, Carbonic acid 5-((E)-2-cyano-2-diethylcarbamoyl-vinyl)-2-hydroxy-3-nitro-phenyl ester propyl ester] returned a chromatographic logD of 1.2. Also, the solubility at 10 min in series [2] (setting [5]) was 10 µg/mL (≈ 25.6 µM); in series [2] (setting [6]), 290 µg/mL (≈ 741 µM); in series [2] (setting [7]), 200 µg/mL (≈ 511 µM); in series [2] (setting [8]) it was 470 µg/mL (≈ 1200 µM). Also, the half-life at 5 μg/mL in the series “Plasma stability ex vivo” was found to be 0.112 h. In addition, the half-life in series [3] (setting [9]) was 23.1 h; in series [3] (setting [10]), 7.2 h. Further, the Papp A→B at 60 min in series [4] was 18 ×10⁻⁶ cm/s.

The compound `CCN(CC)C(=O)/C(C#N)=C/c1cc(OC(=O)OC(C)C)c(O)c([N+](=O)[O-])c1` [Compound 7, Carbonic acid 5-((E)-2-cyano-2-diethylcarbamoyl-vinyl)-2-hydroxy-3-nitro-phenyl ester isopropyl ester] showed a chromatographic logD in series [1] of 1. In addition, the solubility at 10 min in series [2] (setting [5]) is 3 µg/mL (≈ 7.67 µM); in series [2] (setting [6]), 750 µg/mL (≈ 1920 µM); in series [2] (setting [7]), 90 µg/mL (≈ 230 µM); in series [2] (setting [8]), 950 µg/mL (≈ 2430 µM). Moreover, the half-life at 5 μg/mL in the series “Plasma stability ex vivo” was determined as 0.223 h. The half-life in series [3] (setting [9]) is 2.7 h; in series [3] (setting [10]), 23.1 h. Further, the Papp A→B at 60 min in series [4] is 31 ×10⁻⁶ cm/s.

In series [1], `CCN(CC)C(=O)/C(C#N)=C/c1cc(OC(=O)OCc2ccc([N+](=O)[O-])cc2)c(O)c([N+](=O)[O-])c1` [Compound 27, Carbonic acid 5-((E)-2-cyano-2-diethylcarbamoyl-vinyl)-2-hydroxy-3-nitro-phenyl ester 4-nitro-benzyl ester] had a chromatographic logD of more than 8. In the series “Plasma stability ex vivo”, the half-life at 5 μg/mL was more than 0.133 h. For the same compound, the half-life was 3.4 h in series [3] (setting [9]) and 1.6 h in series [3] (setting [10]). Moreover, in series [4], the Papp A→B at 60 min is 18.1 ×10⁻⁶ cm/s.

`C=CCOC(=O)Oc1cc(/C=C(\C#N)C(=O)N(CC)CC)cc([N+](=O)[O-])c1O` [Compound 65, Carbonic acid allyl ester 5-((E)-2-cyano-2-diethylcarbamoyl-vinyl)-2-hydroxy-3-nitro-phenyl ester] came in with a chromatographic logD in series [1] of 1. The half-life at 5 μg/mL in the series “Plasma stability ex vivo” is 0.0167 h. Besides, the half-life in series [3] (setting [9]) is 16.5 h; in series [3] (setting [10]), 4.1 h. In series [4], this compound registered a Papp A→B at 60 min of 8.5 ×10⁻⁶ cm/s.

The compound `CCN(CC)C(=O)/C(C#N)=C/c1cc(OC(=O)OCC(C)C)c(O)c([N+](=O)[O-])c1` [Compound 1, Carbonic acid 5-((E)-2-cyano-2-diethylcarbamoyl-vinyl)-2-hydroxy-3-nitro-phenyl ester isobutyl ester] gave a chromatographic logD in series [1] of 1.4. For the same compound, the solubility at 10 min in series [2] (setting [5]) was 20 µg/mL (≈ 49.3 µM); in series [2] (setting [6]), 530 µg/mL (≈ 1310 µM); in series [2] (setting [7]), 200 µg/mL (≈ 493 µM); in series [2] (setting [8]), 530 µg/mL (≈ 1310 µM). The half-life at 5 μg/mL in the series “Plasma stability ex vivo” came out at 0.128 h. The half-life in series [3] (setting [9]) is 6.8 h; in series [3] (setting [10]), 11.6 h. The compound also came in with a Papp A→B at 60 min in series [4] of 24 ×10⁻⁶ cm/s.

`CCN(CC)C(=O)/C(C#N)=C/c1cc(OC(=O)OCCc2cccs2)c(O)c([N+](=O)[O-])c1` [Compound 61, Carbonic acid 5-((E)-2-cyano-2-diethylcarbamoyl-vinyl)-2-hydroxy-3-nitro-phenyl ester 2-thiophen-2-yl-ethyl ester] displayed a chromatographic logD in series [1] of 1.7. For the same compound, the solubility at 10 min in series [2] (setting [6]) came out at 240 µg/mL (≈ 522 µM); in series [2] (setting [7]), 40 µg/mL (≈ 87.1 µM); in series [2] (setting [8]), 490 µg/mL (≈ 1070 µM). Moreover, the half-life at 5 μg/mL in the series “Plasma stability ex vivo” was 0.47 h. Further, the half-life is 12.8 h in series [3] (setting [9]) and 4 h in series [3] (setting [10]). In series [4], this compound yielded an apical-to-basolateral permeability (Papp A→B) at 60 min of 36 ×10⁻⁶ cm/s.

Compound `CCN(CC)C(=O)/C(C#N)=C/c1cc(OC(=O)OC2CCCCC2)c(O)c([N+](=O)[O-])c1` [Compound 51, Carbonic acid 5-((E)-2-cyano-2-diethylcarbamoyl-vinyl)-2-hydroxy-3-nitro-phenyl ester cyclohexyl ester] showed a chromatographic logD in series [1] of 1.8. Moreover, the solubility at 10 min in series [2] (setting [5]) is less than 10 µg/mL; in series [2] (setting [6]), 1200 µg/mL (≈ 2780 µM); in series [2] (setting [7]) it was 140 µg/mL (≈ 324 µM); in series [2] (setting [8]), 810 µg/mL (≈ 1880 µM). Besides, the half-life at 5 μg/mL in the series “Plasma stability ex vivo” worked out at 0.64 h. In addition, the half-life in series [3] (setting [9]) is less than 1 h; in series [3] (setting [10]) it was 19.3 h. The apical-to-basolateral permeability (Papp A→B) at 60 min in series [4] stood at 45 ×10⁻⁶ cm/s.

`CCOC(=O)Oc1cc(/C=C(\C#N)C(=O)N(CC)CC)cc([N+](=O)[O-])c1O` [Compound 71, Carbonic acid 5-((E)-2-cyano-2-diethylcarbamoyl-vinyl)-2-hydroxy-3-nitro-phenyl ester ethyl ester]: in series [1], the chromatographic logD amounted to 0.8. The solubility at 10 min is 70 µg/mL (≈ 186 µM) in series [2] (setting [5]), 570 µg/mL (≈ 1510 µM) in series [2] (setting [6]), 1100 µg/mL (≈ 2920 µM) in series [2] (setting [7]) and 800 µg/mL (≈ 2120 µM) in series [2] (setting [8]). Moreover, the half-life at 5 μg/mL in the series “Plasma stability ex vivo” turned out to be 0.0133 h. Moreover, the figures for the half-life in series [3] (setting [9]) and in series [3] (setting [10]) were 28.9 h and 8.3 h, respectively. The compound also showed a Papp A→B at 60 min in series [4] of 7.7 ×10⁻⁶ cm/s.

What is called chromatographic logD is a lipophilicity value derived from retention on a column. The solubility is the concentration that dissolves in the medium under given conditions. As usually defined, the Papp A→B is the apparent permeability from the apical to the basolateral side of a cell layer.
